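Cultured in 96-well plates, cells were exposed to test compound for 48 hours across five concentrations. GI50 is the concentration that inhibits growth by half.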 The source made the active and inactive calls. Rule as the data show it: active = GI50 up to about 1.1 µM and inactive = higher.
What was measured:
Assay in all cases: NCI anticancer screen, dose series, 48 h
HCC 2998 = tested on: HCC 2998
HOP-92 = tested on: HOP-92
HT-29 = tested on: HT-29
RPMI-8226 = tested on: RPMI-8226
NCI-H522 = tested on: NCI-H522
ACHN = tested on: ACHN
XF498 = tested on: XF498
DMS-273 = tested on: DMS-273
CAKI-1 = tested on: CAKI-1
SNB-78 = tested on: SNB-78
NCI-H226 = tested on: NCI-H226
A549 = tested on: A549
M14 = tested on: M14
SF-268 = tested on: SF-268
SR = tested on: SR
U-251 = tested on: U-251
MOLT-4 = tested on: MOLT-4
NCI-H23 = tested on: NCI-H23
NCI-H460 = tested on: NCI-H460
OVCAR-3 = tested on: OVCAR-3
HCT-15 = tested on: HCT-15
SN12C = tested on: SN12C
SNB-75 = tested on: SNB-75
TK-10 = tested on: TK-10
SK-MEL-2 = tested on: SK-MEL-2
SK-MEL-28 = tested on: SK-MEL-28
786-0 = tested on: 786-0
SNB-19 = tested on: SNB-19
DLD-1 = tested on: DLD-1
UACC-257 = tested on: UACC-257
IGROV-1 = tested on: IGROV-1
CCRF-CEM = tested on: CCRF-CEM
A498 = tested on: A498
KM12 = tested on: KM12
OVCAR-8 = tested on: OVCAR-8
KM-20L2 = tested on: KM-20L2
M19-MEL = tested on: M19-MEL
K562 = tested on: K562
LOX IMVI = tested on: LOX IMVI
COLO 205 = tested on: COLO 205
SF-539 = tested on: SF-539
OVCAR-5 = tested on: OVCAR-5
DMS-114 = tested on: DMS-114
LXFL 529 = tested on: LXFL 529
UACC-62 = tested on: UACC-62
SK-OV-3 = tested on: SK-OV-3
HOP-62 = tested on: HOP-62
EKVX = tested on: EKVX
OVCAR-4 = tested on: OVCAR-4
SW-620 = tested on: SW-620
RXF 393 = tested on: RXF 393
SF-295 = tested on: SF-295
UO-31 = tested on: UO-31
HCT-116 = tested on: HCT-116
SK-MEL-5 = tested on: SK-MEL-5
HL-60 = tested on: HL-60
HOP-18 = tested on: HOP-18
Malme-3M = tested on: Malme-3M
MCF7 = tested on: MCF7
NCI/ADR-RES = tested on: NCI/ADR-RES

O=S(=O)(/C=C/c1ccc(Cl)cc1Cl)Cc1ccccc1CS(=O)(=O)/C=C/c1ccc(Cl)cc1Cl
GI50 (HCC 2998): > 100 µM (inactive)
GI50 (HOP-92): 35.8 µM (inactive)
GI50 (HT-29): 49.4 µM (inactive)
GI50 (RPMI-8226): 5.15 µM (inactive)
GI50 (NCI-H522): > 100 µM (inactive)
GI50 (ACHN): 63.8 µM (inactive)
GI50 (XF498): 32.9 µM (inactive)
GI50 (DMS-273): 10.2 µM (inactive)
GI50 (CAKI-1): > 100 µM (inactive)
GI50 (SNB-78): > 100 µM (inactive)
GI50 (NCI-H226): > 100 µM (inactive)
GI50 (A549): 18 µM (inactive)
GI50 (M14): > 100 µM (inactive)
GI50 (SF-268): 40.5 µM (inactive)
GI50 (SR): > 100 µM (inactive)
GI50 (U-251): > 100 µM (inactive)
GI50 (MOLT-4): 88.7 µM (inactive)
GI50 (NCI-H23): > 100 µM (inactive)
GI50 (NCI-H460): 88.7 µM (inactive)
GI50 (OVCAR-3): > 100 µM (inactive)
GI50 (HCT-15): 46.2 µM
GI50 (SN12C): > 100 µM (inactive)
GI50 (SNB-75): 6.18 µM (inactive)
GI50 (TK-10): > 100 µM (inactive)
GI50 (SK-MEL-2): > 100 µM (inactive)
GI50 (SK-MEL-28): > 100 µM (inactive)
GI50 (786-0): > 100 µM (inactive)
GI50 (SNB-19): > 100 µM (inactive)
GI50 (DLD-1): 29 µM (inactive)
GI50 (UACC-257): 52.8 µM (inactive)
GI50 (IGROV-1): > 100 µM (inactive)
GI50 (CCRF-CEM): 9.27 µM (inactive)
GI50 (A498): 33.5 µM (inactive)
GI50 (KM12): > 100 µM (inactive)
GI50 (OVCAR-8): 7.5 µM (inactive)
GI50 (KM-20L2): > 100 µM (inactive)
GI50 (M19-MEL): 20.9 µM (inactive)
GI50 (K562): 61.1 µM (inactive)
GI50 (LOX IMVI): > 100 µM (inactive)
GI50 (COLO 205): > 100 µM (inactive)
GI50 (SF-539): > 100 µM (inactive)
GI50 (OVCAR-5): > 100 µM (inactive)
GI50 (DMS-114): 31.6 µM (inactive)
GI50 (LXFL 529): 43.1 µM (inactive)
GI50 (UACC-62): 8.38 µM (inactive)
GI50 (SK-OV-3): > 100 µM (inactive)
GI50 (HOP-62): > 100 µM (inactive)
GI50 (EKVX): > 100 µM (inactive)
GI50 (OVCAR-4): 11.9 µM (inactive)
GI50 (SW-620): > 100 µM (inactive)
GI50 (RXF 393): 65.2 µM (inactive)
GI50 (SF-295): 89.3 µM (inactive)
GI50 (UO-31): > 100 µM (inactive)
GI50 (HCT-116): 9.59 µM (inactive)

Clc1ccc(CCn2cncn2)c(Cl)c1
GI50 (HCC 2998): > 100 µM (inactive)
GI50 (HOP-92): > 100 µM (inactive)
GI50 (HT-29): > 100 µM (inactive)
GI50 (NCI-H522): > 100 µM (inactive)
GI50 (ACHN): > 100 µM (inactive)
GI50 (DMS-273): > 100 µM (inactive)
GI50 (CAKI-1): > 100 µM (inactive)
GI50 (SNB-78): > 100 µM (inactive)
GI50 (NCI-H226): > 100 µM (inactive)
GI50 (A549): > 100 µM (inactive)
GI50 (M14): > 100 µM (inactive)
GI50 (SF-268): > 100 µM (inactive)
GI50 (SR): > 100 µM (inactive)
GI50 (U-251): > 100 µM (inactive)
GI50 (MOLT-4): > 100 µM (inactive)
GI50 (NCI-H23): > 100 µM (inactive)
GI50 (NCI-H460): > 100 µM (inactive)
GI50 (OVCAR-3): > 100 µM (inactive)
GI50 (HCT-15): > 100 µM
GI50 (SN12C): > 100 µM (inactive)
GI50 (SNB-75): > 100 µM (inactive)
GI50 (TK-10): > 100 µM (inactive)
GI50 (SK-MEL-28): > 100 µM (inactive)
GI50 (786-0): > 100 µM (inactive)
GI50 (SNB-19): > 100 µM (inactive)
GI50 (SK-MEL-5): > 100 µM (inactive)
GI50 (DLD-1): > 100 µM (inactive)
GI50 (UACC-257): > 100 µM (inactive)
GI50 (IGROV-1): > 100 µM (inactive)
GI50 (CCRF-CEM): > 100 µM (inactive)
GI50 (HL-60): > 100 µM (inactive)
GI50 (HOP-18): 44.6 µM (inactive)
GI50 (KM12): > 100 µM (inactive)
GI50 (OVCAR-8): > 100 µM (inactive)
GI50 (KM-20L2): > 100 µM (inactive)
GI50 (M19-MEL): > 100 µM (inactive)
GI50 (K562): > 100 µM (inactive)
GI50 (COLO 205): > 100 µM (inactive)
GI50 (SF-539): > 100 µM (inactive)
GI50 (OVCAR-5): > 100 µM (inactive)
GI50 (DMS-114): > 100 µM (inactive)
GI50 (LXFL 529): > 100 µM (inactive)
GI50 (UACC-62): > 100 µM (inactive)
GI50 (SK-OV-3): > 100 µM (inactive)
GI50 (HOP-62): > 100 µM (inactive)
GI50 (EKVX): > 100 µM (inactive)
GI50 (OVCAR-4): > 100 µM (inactive)
GI50 (SW-620): > 100 µM (inactive)
GI50 (SF-295): > 100 µM (inactive)
GI50 (UO-31): > 100 µM (inactive)
GI50 (HCT-116): > 100 µM (inactive)

COCC1N=C(c2cc(OC)c(OC)c(OC)c2-c2cc3c(cc2[C@@H](C)O)OCO3)O[C@H]1c1ccccc1 (some centres not stated)
GI50 (HCC 2998): > 100 µM (inactive)
GI50 (HOP-92): 34.4 µM (inactive)
GI50 (HT-29): 75.9 µM (inactive)
GI50 (RPMI-8226): 97.5 µM (inactive)
GI50 (NCI-H522): 36.2 µM (inactive)
GI50 (DMS-273): > 71.9 µM (inactive)
GI50 (CAKI-1): 99.8 µM (inactive)
GI50 (SNB-78): > 45.2 µM (inactive)
GI50 (NCI-H226): > 77.1 µM (inactive)
GI50 (A549): > 57.3 µM (inactive)
GI50 (Malme-3M): > 80.5 µM (inactive)
GI50 (SF-268): > 66.2 µM (inactive)
GI50 (U-251): 53.2 µM (inactive)
GI50 (MOLT-4): > 100 µM (inactive)
GI50 (NCI-H23): 51.6 µM (inactive)
GI50 (NCI-H460): > 71.8 µM (inactive)
GI50 (OVCAR-3): 50 µM (inactive)
GI50 (HCT-15): > 100 µM
GI50 (MCF7): > 61.1 µM (inactive)
GI50 (SN12C): 52.1 µM (inactive)
GI50 (SNB-75): 25.9 µM (inactive)
GI50 (SK-MEL-2): > 53.3 µM (inactive)
GI50 (SK-MEL-28): > 68.4 µM (inactive)
GI50 (SNB-19): 73.1 µM (inactive)
GI50 (SK-MEL-5): > 76.7 µM (inactive)
GI50 (DLD-1): > 89.7 µM (inactive)
GI50 (UACC-257): > 100 µM (inactive)
GI50 (IGROV-1): > 68.9 µM (inactive)
GI50 (CCRF-CEM): > 100 µM (inactive)
GI50 (HL-60): > 100 µM (inactive)
GI50 (NCI/ADR-RES): 40.2 µM (inactive)
GI50 (A498): > 94.4 µM (inactive)
GI50 (HOP-18): > 86.5 µM (inactive)
GI50 (KM12): > 100 µM (inactive)
GI50 (OVCAR-8): > 74.5 µM (inactive)
GI50 (KM-20L2): 98.2 µM (inactive)
GI50 (M19-MEL): > 90.8 µM (inactive)
GI50 (K562): > 100 µM (inactive)
GI50 (LOX IMVI): > 100 µM (inactive)
GI50 (COLO 205): > 100 µM (inactive)
GI50 (SF-539): 77.4 µM (inactive)
GI50 (OVCAR-5): > 73.8 µM (inactive)
GI50 (UACC-62): 33.6 µM (inactive)
GI50 (SK-OV-3): 97.5 µM (inactive)
GI50 (HOP-62): 86.3 µM (inactive)
GI50 (EKVX): 36.8 µM (inactive)
GI50 (OVCAR-4): 37.6 µM (inactive)
GI50 (SW-620): > 100 µM (inactive)
GI50 (RXF 393): 33.7 µM (inactive)
GI50 (SF-295): 57.7 µM (inactive)
GI50 (UO-31): > 100 µM (inactive)
GI50 (HCT-116): > 100 µM (inactive)

From ChEMBL document CHEMBL1201862, “PubChem BioAssay data set” (2004)
